The nature of the experiment: Inhibition of HIV1 3B reverse transcriptase activity infected in human H9 cells assessed as level of p24 antigen.

Each structure is given as a SMILES string. pIC50: −log10 of the molar value.

In general, pIC50 refers to the negative decadic logarithm of the IC50, by convention in mol/L. With `CC1(C)O[C@H]2CC(=O)OC[C@]23[C@H]2CC[C@@]4(C)[C@H](c5ccoc5)OC(=O)[C@H]5O[C@]54[C@]2(C)C(=O)C[C@@H]13` [Limonin], the pIC50 was 8.35.

Source of the values: BindingDB's records for doi:10.1016/j.bmc.2011.01.024 (University of Rome Tor Vergata, 2011).
